Source: publication PMC3995882, “Antimicrobial and Immunomodulatory Activities of PR-39 Derived Peptides” (PLoS ONE, 2014)
Converted amounts (≈) assume the structure as drawn. Where a SMILES comes first, the peptide text is derived from it.

Columns and labels:
B. globigii = type: cell-based, Bacillus globigii; settings: colony counting, 3 h 37°C, 10 mM phosphate buffer pH 7.0 with 1/1000 TSB, MBC = <100 CFU/ml; for MBC B. globigii 0 mM NaCl: 2×10^6 CFU/ml, no NaCl added; for MBC B. globigii +100 mM NaCl: 100 mM NaCl added
Description: (§1) Overnight cultures of E. coli and B. globigii were grown in TSB medium at 37°C to mid-logarithmic phase. The antimicrobial activity of the PR-39 derived peptides was tested using colony counting as described before. In short, cells were collected via centrifugation at 900×g for 10 minutes, and resuspended in 10 mM phosphate buffer, pH 7.0, containing 1/1000 TSB medium (Buffer A). Cells were further diluted to 2×10^6 CFU/ml in the same buffer. Next, 25 µl of cell suspension was mixed with an equal volume of different concentrations of peptides ranging from 0–80 µM, and incubated further for 3 hours at 37°C. Ten-fold dilutions were prepared in minimal buffer containing 1/1000 TSB medium in distilled water, and 100 µl from each dilution was spread on TSA plates (Trypton Soy Agar; Oxoid). The plates were incubated at 37°C and the number of colonies was counted 24 h later to determine the number of surviving bacteria. Minimal Bactericidal Concentration (MBC) was defined as <100 CFU/ml corresponding to the detection limit of this assay. To determine the dependence of activity of PR-39 on the energy status of the cell, E. coli was incubated 30 min at 37°C in the presence of the metabolic uncouplers 50 µM carbonyl cyanide m-chlorophenylhydrazone (CCCP), or 5 mM 2,4-dinitrophenol (DNP). Subsequently, an antimicrobial activity assay was performed as described above.

E. coli = experiment: Colony counting assay (MBC); type: cell-based, Escherichia coli; settings: 3 h 37°C, 10 mM phosphate buffer pH 7.0 with 1/1000 TSB, MBC = <100 CFU/ml; for MBC E. coli 0 mM NaCl: 2×10^6 CFU/ml, no NaCl added; for MBC E. coli 100 mM NaCl: 100 mM NaCl added
Description: as §1

Compound: CC(C)C[C@H](NC(=O)[C@H](CCCNC(=N)N)NC(=O)[C@@H]1CCCN1C(=O)[C@@H]1CCCN1C(=O)[C@H](Cc1ccccc1)NC(=O)[C@H](Cc1ccccc1)NC(=O)[C@@H]1CCCN1C(=O)[C@@H]1CCCN1C(=O)[C@@H]1CCCN1C(=O)[C@H](CCCNC(=N)N)NC(=O)[C@@H]1CCCN1C(=O)[C@H](CCCNC(=N)N)NC(=O)[C@@H]1CCCN1C(=O)[C@H](CC(C)C)NC(=O)[C@H](Cc1ccc(O)cc1)NC(=O)[C@@H]1CCCN1C(=O)[C@@H]1CCCN1C(=O)[C@H](CCCNC(=N)N)NC(=O)[C@@H]1CCCN1C(=O)[C@H](CCCNC(=N)N)NC(=O)[C@H](CCCNC(=N)N)NC(=O)[C@@H](N)CCCNC(=N)N)C(=O)O [PR-39(1–22)] (H-RRRPRPPYLPRPRPPPFFPPRL-OH)
- MBC B. globigii 0 mM NaCl (B. globigii): 2.5 µM (≈ 6.92 µg/mL)
- MBC B. globigii +100 mM NaCl (B. globigii): 10 µM (≈ 27.7 µg/mL)
- MBC E. coli 0 mM NaCl (E. coli): 1.25 µM (≈ 3.46 µg/mL)
- MBC E. coli 100 mM NaCl (E. coli): 2.5 µM (≈ 6.92 µg/mL)

Compound: CC[C@H](C)[C@H](NC(=O)[C@H](CCCNC(=N)N)NC(=O)[C@@H]1CCCN1)C(=O)N1CCC[C@H]1C(=O)N1CCC[C@H]1C(=O)NCC(=O)N[C@@H](Cc1ccccc1)C(=O)N1CCC[C@H]1C(=O)N1CCC[C@H]1C(=O)N[C@@H](CCCNC(=N)N)C(=O)N[C@@H](Cc1ccccc1)C(=O)N1CCC[C@H]1C(=O)N1CCC[C@H]1C(=O)N[C@@H](CCCNC(=N)N)C(=O)N[C@@H](Cc1ccccc1)C(=O)N1CCC[C@H]1C(=O)O [PR-39(24–39)] (H-PRIPPGFPPRFPPRFP-OH)
- MBC B. globigii 0 mM NaCl (B. globigii): 40 µM (≈ 75 µg/mL)
- MBC B. globigii +100 mM NaCl (B. globigii): >40 µM
- MBC E. coli 0 mM NaCl (E. coli): 40 µM (≈ 75 µg/mL)
- MBC E. coli 100 mM NaCl (E. coli): >40 µM

Compound: CC[C@H](C)[C@H](NC(=O)[C@H](CCCNC(=N)N)NC(=O)[C@@H]1CCCN1C(=O)[C@@H]1CCCN1C(=O)[C@H](CC(C)C)NC(=O)[C@H](CCCNC(=N)N)NC(=O)[C@@H]1CCCN1C(=O)[C@@H]1CCCN1C(=O)[C@H](Cc1ccccc1)NC(=O)[C@H](Cc1ccccc1)NC(=O)[C@@H]1CCCN1)C(=O)N1CCC[C@H]1C(=O)N1CCC[C@H]1C(=O)NCC(=O)N[C@@H](Cc1ccccc1)C(=O)N1CCC[C@H]1C(=O)N1CCC[C@H]1C(=O)N[C@@H](CCCNC(=N)N)C(=O)N[C@@H](Cc1ccccc1)C(=O)N1CCC[C@H]1C(=O)N1CCC[C@H]1C(=O)N[C@@H](CCCNC(=N)N)C(=O)N[C@@H](Cc1ccccc1)C(=O)N1CCC[C@H]1C(=O)O [PR-39(16–39)] (H-PFFPPRLPPRIPPGFPPRFPPRFP-OH)
- MBC B. globigii 0 mM NaCl (B. globigii): 10 µM (≈ 28.3 µg/mL)
- MBC B. globigii +100 mM NaCl (B. globigii): >40 µM
- MBC E. coli 0 mM NaCl (E. coli): 10 µM (≈ 28.3 µg/mL)
- MBC E. coli 100 mM NaCl (E. coli): >40 µM

Compound: CC(C)C[C@H](NC(=O)[C@H](Cc1ccc(O)cc1)NC(=O)[C@@H]1CCCN1C(=O)[C@@H]1CCCN1C(=O)[C@H](CCCNC(=N)N)NC(=O)[C@@H]1CCCN1C(=O)[C@H](CCCNC(=N)N)NC(=O)[C@H](CCCNC(=N)N)NC(=O)[C@@H](N)CCCNC(=N)N)C(=O)N1CCC[C@H]1C(=O)N[C@@H](CCCNC(=N)N)C(=O)N1CCC[C@H]1C(=O)N[C@@H](CCCNC(=N)N)C(=O)N1CCC[C@H]1C(=O)N1CCC[C@H]1C(=O)O [PR-39(1–15)] (H-RRRPRPPYLPRPRPP-OH)
- MBC B. globigii 0 mM NaCl (B. globigii): 5 µM (≈ 9.56 µg/mL)
- MBC B. globigii +100 mM NaCl (B. globigii): >40 µM
- MBC E. coli 0 mM NaCl (E. coli): 5 µM (≈ 9.56 µg/mL)
- MBC E. coli 100 mM NaCl (E. coli): >40 µM

Compound: CC[C@H](C)[C@H](NC(=O)[C@H](CCCNC(=N)N)NC(=O)[C@@H]1CCCN1C(=O)[C@@H]1CCCN1C(=O)[C@H](CC(C)C)NC(=O)[C@H](CCCNC(=N)N)NC(=O)[C@@H]1CCCN1)C(=O)N1CCC[C@H]1C(=O)N1CCC[C@H]1C(=O)NCC(=O)N[C@@H](Cc1ccccc1)C(=O)N1CCC[C@H]1C(=O)N1CCC[C@H]1C(=O)N[C@@H](CCCNC(=N)N)C(=O)N[C@@H](Cc1ccccc1)C(=O)N1CCC[C@H]1C(=O)N1CCC[C@H]1C(=O)N[C@@H](CCCNC(=N)N)C(=O)N[C@@H](Cc1ccccc1)C(=O)N1CCC[C@H]1C(=O)O [PR-39(20–39)] (H-PRLPPRIPPGFPPRFPPRFP-OH)
- MBC B. globigii 0 mM NaCl (B. globigii): 20 µM (≈ 46.8 µg/mL)
- MBC B. globigii +100 mM NaCl (B. globigii): >40 µM
- MBC E. coli 0 mM NaCl (E. coli): 5 µM (≈ 11.7 µg/mL)
- MBC E. coli 100 mM NaCl (E. coli): >40 µM

Compound: CC(C)C[C@H](NC(=O)[C@H](Cc1ccc(O)cc1)NC(=O)[C@@H]1CCCN1C(=O)[C@@H]1CCCN1C(=O)[C@H](CCCNC(=N)N)NC(=O)[C@@H]1CCCN1C(=O)[C@H](CCCNC(=N)N)NC(=O)[C@H](CCCNC(=N)N)NC(=O)[C@@H](N)CCCNC(=N)N)C(=O)N1CCC[C@H]1C(=O)N[C@@H](CCCNC(=N)N)C(=O)N1CCC[C@H]1C(=O)N[C@@H](CCCNC(=N)N)C(=O)N1CCC[C@H]1C(=O)N1CCC[C@H]1C(=O)N1CCC[C@H]1C(=O)N[C@@H](Cc1ccccc1)C(=O)N[C@@H](Cc1ccccc1)C(=O)O [PR-39(1–18)] (H-RRRPRPPYLPRPRPPPFF-OH)
- MBC B. globigii 0 mM NaCl (B. globigii): 2.5 µM (≈ 5.76 µg/mL)
- MBC B. globigii +100 mM NaCl (B. globigii): 10 µM (≈ 23 µg/mL)
- MBC E. coli 0 mM NaCl (E. coli): 5 µM (≈ 11.5 µg/mL)
- MBC E. coli 100 mM NaCl (E. coli): 20 µM (≈ 46.1 µg/mL)

Compound: CC[C@H](C)[C@H](NC(=O)[C@H](CCCNC(=N)N)NC(=O)[C@@H]1CCCN1C(=O)[C@@H]1CCCN1C(=O)[C@H](CC(C)C)NC(=O)[C@H](CCCNC(=N)N)NC(=O)[C@@H]1CCCN1C(=O)[C@@H]1CCCN1C(=O)[C@H](Cc1ccccc1)NC(=O)[C@H](Cc1ccccc1)NC(=O)[C@@H]1CCCN1C(=O)[C@@H]1CCCN1C(=O)[C@@H]1CCCN1C(=O)[C@H](CCCNC(=N)N)NC(=O)[C@@H]1CCCN1C(=O)[C@H](CCCNC(=N)N)NC(=O)[C@@H]1CCCN1C(=O)[C@H](CC(C)C)NC(=O)[C@H](Cc1ccc(O)cc1)NC(=O)[C@@H]1CCCN1C(=O)[C@@H]1CCCN1C(=O)[C@H](CCCNC(=N)N)NC(=O)[C@@H]1CCCN1C(=O)[C@H](CCCNC(=N)N)NC(=O)[C@H](CCCNC(=N)N)NC(=O)[C@@H](N)CCCNC(=N)N)C(=O)O [PR-39(1–26)] (H-RRRPRPPYLPRPRPPPFFPPRLPPRI-OH)
- MBC B. globigii 0 mM NaCl (B. globigii): 5 µM (≈ 16.1 µg/mL)
- MBC B. globigii +100 mM NaCl (B. globigii): 5 µM (≈ 16.1 µg/mL)
- MBC E. coli 0 mM NaCl (E. coli): 2.5 µM (≈ 8.07 µg/mL)
- MBC E. coli 100 mM NaCl (E. coli): 1.25 µM (≈ 4.04 µg/mL)
